Experimental data from ChEMBL document CHEMBL3885881, “DrugMatrix”.

Species on record: Rattus norvegicus
Test: DrugMatrix - Regimen: Daily Repeat
Type: toxicity, organism-based, Sprague-Dawley
Design: regimen Daily Repeat, gender Male, age 6-8 weeks
Settings: in vivo, po, route oral GAVAGE, vehicle 100 % WATER; for ABSOLUTE BASOPHIL / ABSOLUTE EOSINOPHIL / ABSOLUTE LYMPHOCYTE / ABSOLUTE MONOCYTE / ABSOLUTE SEGMENTED NEUTROPHIL / BASOPHIL / EOSINOPHIL / ERYTHROCYTE COUNT / HEMATOCRIT / HEMOGLOBIN / LEUKOCYTE COUNT / LYMPHOCYTE / MEAN CORPUSCULAR HEMOGLOBIN / MEAN CORPUSCULAR HEMOGLOBIN CONCENTRATION / MEAN CORPUSCULAR VOLUME / MONOCYTE / NEUTROPHIL / NUCLEATED RED BLOOD CELLS / PLATELET COUNT: tissue Blood; for ALANINE AMINOTRANSFERASE / ALBUMIN / ALKALINE PHOSPHATASE / ASPARTATE AMINOTRANSFERASE / BLOOD UREA NITROGEN / CARBON DIOXIDE / CHLORIDE / CHOLESTEROL / CREATINE PHOSPHOKINASE / CREATININE / GLUCOSE / LACTATE DEHYDROGENASE / LIPASE / PHOSPHORUS / POTASSIUM / SODIUM / TOTAL BILIRUBIN / TOTAL PROTEIN / URIC ACID: tissue Plasma
[1] = 0 mg/kg, 72 h, dose level Control, time 3 day
[2] = 0 mg/kg, 120 h, dose level Control, time 5 day
[3] = 100 mg/kg, 72 h, dose level Low, time 3 day
[4] = 100 mg/kg, 120 h, dose level Low, time 5 day

Compound: C[C@](N)(Cc1ccc(O)c(O)c1)C(=O)O [METHYLDOPA]
- ABSOLUTE BASOPHIL [1]: 0 CELLS/uL
- ABSOLUTE EOSINOPHIL [1]: 46 CELLS/uL
- ABSOLUTE LYMPHOCYTE [1]: 10225.67 CELLS/uL
- ABSOLUTE MONOCYTE [1]: 319.33 CELLS/uL
- ABSOLUTE SEGMENTED NEUTROPHIL [1]: 1242.33 CELLS/uL
- BASOPHIL [1]: 0%
- EOSINOPHIL [1]: 0.33%
- ERYTHROCYTE COUNT [1]: 5.17 x10E6/uL
- HEMATOCRIT [1]: 33.43%
- HEMOGLOBIN [1]: 12.55 G/DL
- LEUKOCYTE COUNT [1]: 11.83 x10E3/uL
- LYMPHOCYTE [1]: 86.5%
- MEAN CORPUSCULAR HEMOGLOBIN [1]: 24.35 pg
- MEAN CORPUSCULAR HEMOGLOBIN CONCENTRATION [1]: 37.57 G/DL
- MEAN CORPUSCULAR VOLUME [1]: 64.8 fL
- MONOCYTE [1]: 2.67%
- NEUTROPHIL [1]: 10.5%
- NUCLEATED RED BLOOD CELLS [1]: 0.17 /100WBC
- PLATELET COUNT [1]: 1026.17 x10E3/uL
- ALANINE AMINOTRANSFERASE [1]: 52.67 u/L
- ALBUMIN [1]: 4.17 G/DL
- ALKALINE PHOSPHATASE [1]: 331 u/L
- ASPARTATE AMINOTRANSFERASE [1]: 92.33 u/L
- BLOOD UREA NITROGEN [1]: 15.33 mg/dL
- CARBON DIOXIDE [1]: 26.17 mmol/L
- CHLORIDE [1]: 103.17 MEQ/L
- CHOLESTEROL [1]: 73.67 mg/dL
- CREATINE PHOSPHOKINASE [1]: 472.83 u/L
- CREATININE [1]: 0.29 mg/dL
- GLUCOSE [1]: 178.5 mg/dL
- LACTATE DEHYDROGENASE [1]: 244.83 u/L
- LIPASE [1]: 10.67 u/L
- PHOSPHORUS [1]: 12.45 mg/dL
- POTASSIUM [1]: 6.35 MEQ/L
- SODIUM [1]: 144.27 MEQ/L
- TOTAL BILIRUBIN [1]: 0.13 mg/dL
- TOTAL PROTEIN [1]: 5.77 G/DL
- URIC ACID [1]: 2.08 mg/dL
- ABSOLUTE BASOPHIL [2]: 0 CELLS/uL
- ABSOLUTE EOSINOPHIL [2]: 23.5 CELLS/uL
- ABSOLUTE LYMPHOCYTE [2]: 12797.33 CELLS/uL
- ABSOLUTE MONOCYTE [2]: 465.5 CELLS/uL
- ABSOLUTE SEGMENTED NEUTROPHIL [2]: 1313.67 CELLS/uL
- BASOPHIL [2]: 0%
- EOSINOPHIL [2]: 0.17%
- ERYTHROCYTE COUNT [2]: 5.76 x10E6/uL
- HEMATOCRIT [2]: 36.72%
- HEMOGLOBIN [2]: 13.72 G/DL
- LEUKOCYTE COUNT [2]: 14.6 x10E3/uL
- LYMPHOCYTE [2]: 87.5%
- MEAN CORPUSCULAR HEMOGLOBIN [2]: 23.8 pg
- MEAN CORPUSCULAR HEMOGLOBIN CONCENTRATION [2]: 37.35 G/DL
- MEAN CORPUSCULAR VOLUME [2]: 63.72 fL
- MONOCYTE [2]: 3.17%
- NEUTROPHIL [2]: 9.17%
- NUCLEATED RED BLOOD CELLS [2]: 0.33 /100WBC
- PLATELET COUNT [2]: 1270.67 x10E3/uL
- ALANINE AMINOTRANSFERASE [2]: 50.5 u/L
- ALBUMIN [2]: 4.32 G/DL
- ALKALINE PHOSPHATASE [2]: 339.67 u/L
- ASPARTATE AMINOTRANSFERASE [2]: 88 u/L
- BLOOD UREA NITROGEN [2]: 17 mg/dL
- CARBON DIOXIDE [2]: 25 mmol/L
- CHLORIDE [2]: 103.83 MEQ/L
- CHOLESTEROL [2]: 71.33 mg/dL
- CREATINE PHOSPHOKINASE [2]: 281.83 u/L
- CREATININE [2]: 0.26 mg/dL
- GLUCOSE [2]: 161.67 mg/dL
- LACTATE DEHYDROGENASE [2]: 191.17 u/L
- LIPASE [2]: 10.17 u/L
- PHOSPHORUS [2]: 11.72 mg/dL
- POTASSIUM [2]: 6.76 MEQ/L
- SODIUM [2]: 145.17 MEQ/L
- TOTAL BILIRUBIN [2]: 0.2 mg/dL
- TOTAL PROTEIN [2]: 6.15 G/DL
- URIC ACID [2]: 2 mg/dL
- ABSOLUTE BASOPHIL [3]: 0 CELLS/uL
- ABSOLUTE EOSINOPHIL [3]: 0 CELLS/uL
- ABSOLUTE LYMPHOCYTE [3]: 10758.67 CELLS/uL
- ABSOLUTE MONOCYTE [3]: 142 CELLS/uL
- ABSOLUTE SEGMENTED NEUTROPHIL [3]: 1766 CELLS/uL
- BASOPHIL [3]: 0%
- EOSINOPHIL [3]: 0%
- ERYTHROCYTE COUNT [3]: 5.69 x10E6/uL
- HEMATOCRIT [3]: 36.1%
- HEMOGLOBIN [3]: 13.63 G/DL
- LEUKOCYTE COUNT [3]: 12.67 x10E3/uL
- LYMPHOCYTE [3]: 85.33%
- MEAN CORPUSCULAR HEMOGLOBIN [3]: 24.03 pg
- MEAN CORPUSCULAR HEMOGLOBIN CONCENTRATION [3]: 37.8 G/DL
- MEAN CORPUSCULAR VOLUME [3]: 63.63 fL
- MONOCYTE [3]: 1%
- NEUTROPHIL [3]: 13.67%
- NUCLEATED RED BLOOD CELLS [3]: 0 /100WBC
- PLATELET COUNT [3]: 1351.33 x10E3/uL
- ALANINE AMINOTRANSFERASE [3]: 54 u/L
- ALBUMIN [3]: 4.2 G/DL
- ALKALINE PHOSPHATASE [3]: 332.33 u/L
- ASPARTATE AMINOTRANSFERASE [3]: 92.67 u/L
- BLOOD UREA NITROGEN [3]: 19.33 mg/dL
- CARBON DIOXIDE [3]: 25.67 mmol/L
- CHLORIDE [3]: 102.67 MEQ/L
- CHOLESTEROL [3]: 84 mg/dL
- CREATINE PHOSPHOKINASE [3]: 281.67 u/L
- CREATININE [3]: 0.24 mg/dL
- GLUCOSE [3]: 161.33 mg/dL
- LACTATE DEHYDROGENASE [3]: 210.33 u/L
- LIPASE [3]: 13 u/L
- PHOSPHORUS [3]: 12.67 mg/dL
- POTASSIUM [3]: 7.2 MEQ/L
- SODIUM [3]: 145.7 MEQ/L
- TOTAL BILIRUBIN [3]: 0.23 mg/dL
- TOTAL PROTEIN [3]: 6.07 G/DL
- URIC ACID [3]: 2.93 mg/dL
- ABSOLUTE BASOPHIL [4]: 0 CELLS/uL
- ABSOLUTE EOSINOPHIL [4]: 0 CELLS/uL
- ABSOLUTE LYMPHOCYTE [4]: 9543.67 CELLS/uL
- ABSOLUTE MONOCYTE [4]: 215.33 CELLS/uL
- ABSOLUTE SEGMENTED NEUTROPHIL [4]: 1341 CELLS/uL
- BASOPHIL [4]: 0%
- EOSINOPHIL [4]: 0%
- ERYTHROCYTE COUNT [4]: 5.03 x10E6/uL
- HEMATOCRIT [4]: 32.97%
- HEMOGLOBIN [4]: 12.67 G/DL
- LEUKOCYTE COUNT [4]: 11.1 x10E3/uL
- LYMPHOCYTE [4]: 86%
- MEAN CORPUSCULAR HEMOGLOBIN [4]: 25.17 pg
- MEAN CORPUSCULAR HEMOGLOBIN CONCENTRATION [4]: 38.47 G/DL
- MEAN CORPUSCULAR VOLUME [4]: 65.47 fL
- MONOCYTE [4]: 1.67%
- NEUTROPHIL [4]: 12.33%
- NUCLEATED RED BLOOD CELLS [4]: 0 /100WBC
- PLATELET COUNT [4]: 979.33 x10E3/uL
- ALANINE AMINOTRANSFERASE [4]: 56.67 u/L
- ALBUMIN [4]: 4.1 G/DL
- ALKALINE PHOSPHATASE [4]: 363.67 u/L
- ASPARTATE AMINOTRANSFERASE [4]: 90 u/L
- BLOOD UREA NITROGEN [4]: 17 mg/dL
- CARBON DIOXIDE [4]: 24.33 mmol/L
- CHLORIDE [4]: 103.33 MEQ/L
- CHOLESTEROL [4]: 67 mg/dL
- CREATINE PHOSPHOKINASE [4]: 265.33 u/L
- CREATININE [4]: 0.56 mg/dL
- GLUCOSE [4]: 159 mg/dL
- LACTATE DEHYDROGENASE [4]: 154.33 u/L
- LIPASE [4]: 13.33 u/L
- PHOSPHORUS [4]: 11.83 mg/dL
- POTASSIUM [4]: 6.26 MEQ/L
- SODIUM [4]: 145.33 MEQ/L
- TOTAL BILIRUBIN [4]: 0.17 mg/dL
- TOTAL PROTEIN [4]: 5.8 G/DL
- URIC ACID [4]: 1.6 mg/dL
